The values below come from publication PMC7429951 (Journal of Medicinal Chemistry, 2020).

For data set [1], the target named is T1, LasB (Pseudomonas aeruginosa, UniProt Q02RJ6). Briefly: biochemical. The settings on record: LasB IC50, FRET-based assay.
Data set [2] deals with peptidase domain of ColH (ColH-PD) (Hathewaya histolytica, UniProt Q46085). The experiment in a line: biochemical. The conditions noted are these: for inhibition at 1 µM: read-out: ColH-PD % inhibition @ 1 μM. On the set-up: species or system Clostridium histolyticum.
Sequence of peptidase domain of ColH (ColH-PD) (Q46085 331-721 limits assumed): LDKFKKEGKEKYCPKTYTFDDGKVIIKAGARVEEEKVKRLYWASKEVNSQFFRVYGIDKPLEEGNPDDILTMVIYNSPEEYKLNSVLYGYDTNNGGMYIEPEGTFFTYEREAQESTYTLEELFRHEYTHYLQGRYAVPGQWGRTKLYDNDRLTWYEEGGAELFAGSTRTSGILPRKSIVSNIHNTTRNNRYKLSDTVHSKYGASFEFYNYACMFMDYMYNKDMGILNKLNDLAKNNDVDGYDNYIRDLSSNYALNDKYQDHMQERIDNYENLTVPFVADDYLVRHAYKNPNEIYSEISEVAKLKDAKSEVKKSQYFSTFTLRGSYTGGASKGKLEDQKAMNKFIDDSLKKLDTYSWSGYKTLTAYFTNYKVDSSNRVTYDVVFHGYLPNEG
The target of data set [3] is collagenase unit of ColG (ColG-CU) (Hathewaya histolytica, UniProt Q9X721). The experiment in a line: biochemical. The conditions noted are these: read-out: ColG-CU % inhibition @ 100 μM. The arrangement: species or system C. histolyticum.
Sequence of collagenase unit of ColG (ColG-CU) (Q9X721 111-786): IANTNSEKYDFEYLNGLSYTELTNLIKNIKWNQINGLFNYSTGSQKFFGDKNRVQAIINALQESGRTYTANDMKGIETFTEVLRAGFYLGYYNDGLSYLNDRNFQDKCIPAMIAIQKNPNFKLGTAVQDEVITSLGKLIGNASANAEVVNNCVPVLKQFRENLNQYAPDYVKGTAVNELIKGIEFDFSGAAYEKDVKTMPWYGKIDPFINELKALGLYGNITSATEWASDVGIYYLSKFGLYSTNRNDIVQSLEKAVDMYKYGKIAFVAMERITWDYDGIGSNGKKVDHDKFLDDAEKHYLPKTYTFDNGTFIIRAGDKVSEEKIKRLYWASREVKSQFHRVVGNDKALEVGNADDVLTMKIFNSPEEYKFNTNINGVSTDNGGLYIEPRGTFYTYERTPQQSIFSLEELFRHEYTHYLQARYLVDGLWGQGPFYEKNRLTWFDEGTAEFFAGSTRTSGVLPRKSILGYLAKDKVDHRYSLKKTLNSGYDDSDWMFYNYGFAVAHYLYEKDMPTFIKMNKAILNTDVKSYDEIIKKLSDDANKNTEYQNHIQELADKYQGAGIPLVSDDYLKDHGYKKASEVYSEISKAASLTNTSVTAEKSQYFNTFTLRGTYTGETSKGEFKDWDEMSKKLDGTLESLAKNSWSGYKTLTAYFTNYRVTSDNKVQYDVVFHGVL
In data set [4] the target is peptidase domain of ColT (ColT-PD) (Clostridium tetani, UniProt Q899Y1). The experiment in a line: biochemical. The arrangement: species or system C. tetani. The settings on record: read-out: ColT-PD % inhibition @ 100 μM.
Sequence of peptidase domain of ColT (ColT-PD) (Q899Y1 340-731 limits assumed): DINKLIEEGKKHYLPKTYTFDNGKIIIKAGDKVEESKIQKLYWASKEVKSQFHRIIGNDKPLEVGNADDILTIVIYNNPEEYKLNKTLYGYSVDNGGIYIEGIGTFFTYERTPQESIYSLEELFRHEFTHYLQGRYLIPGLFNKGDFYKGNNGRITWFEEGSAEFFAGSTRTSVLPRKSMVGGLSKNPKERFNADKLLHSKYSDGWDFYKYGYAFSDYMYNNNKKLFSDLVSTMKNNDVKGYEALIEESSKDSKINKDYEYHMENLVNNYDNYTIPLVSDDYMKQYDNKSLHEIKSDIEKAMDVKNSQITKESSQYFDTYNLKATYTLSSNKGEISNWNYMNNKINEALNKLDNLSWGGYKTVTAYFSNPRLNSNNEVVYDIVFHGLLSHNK
The target of data set [5] is T2, collagenase unit of ColQ1 (ColQ1-CU) (Bacillus cereus, UniProt B9J3S4).
T2 construct: the collagenase unit of ColQ1 (ColQ1-CU) from B. cereus strain Q1
T2 sequence (B9J3S4 94-765 limits assumed): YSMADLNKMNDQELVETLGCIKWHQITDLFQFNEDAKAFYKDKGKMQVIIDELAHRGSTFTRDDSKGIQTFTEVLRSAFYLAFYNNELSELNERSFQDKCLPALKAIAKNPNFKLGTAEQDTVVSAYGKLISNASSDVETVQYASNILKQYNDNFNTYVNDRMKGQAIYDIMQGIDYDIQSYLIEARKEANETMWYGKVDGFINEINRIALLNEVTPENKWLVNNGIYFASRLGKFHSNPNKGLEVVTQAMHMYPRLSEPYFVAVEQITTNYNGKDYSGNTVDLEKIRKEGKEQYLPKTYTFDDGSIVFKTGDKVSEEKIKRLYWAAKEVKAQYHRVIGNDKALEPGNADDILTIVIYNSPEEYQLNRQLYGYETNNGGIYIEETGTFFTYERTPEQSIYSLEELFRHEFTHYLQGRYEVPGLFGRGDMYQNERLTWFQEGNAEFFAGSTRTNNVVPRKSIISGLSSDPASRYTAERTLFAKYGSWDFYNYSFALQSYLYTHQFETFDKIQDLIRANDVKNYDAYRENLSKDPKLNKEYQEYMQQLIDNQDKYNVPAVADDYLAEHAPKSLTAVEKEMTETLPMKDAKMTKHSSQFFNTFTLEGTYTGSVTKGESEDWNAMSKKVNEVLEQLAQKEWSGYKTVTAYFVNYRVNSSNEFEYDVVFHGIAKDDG
The experiment in a line: biochemical. The arrangement: species or system B. cereus strain Q1. The settings on record: read-out: ColQ1-CU % inhibition @ 100 μM.

The subject of data set [6] is P. aeruginosa strain PA14. Briefly: Bacterial growth inhibition assay (MIC) P. aeruginosa. It counts as cell-based, Pseudomonas aeruginosa.
Data set [7] deals with T1, LasB.
A further data set has as its target ColH. The conditions noted are these: literature inhibitor; cited from earlier work.
The nature of data set [8]: in vitro. The conditions noted are these: human, A549 cells (lung carcinoma).
The nature of data set [9]: in vitro. The conditions noted are these: human, HepG2 cells (hepatocellular carcinoma).
The nature of data set [10]: in vitro. The conditions noted are these: human, HEK293 cells (embryonal kidney).

The IC50 is the concentration needed to halve the response being measured. Read a high IC50 as lower potency. What is called inhibition is the relative decrease from the control value, in per cent. As usually defined, the MIC is the least concentration at which growth counts as inhibited. Higher therefore signals weaker potency. The Ki is a measure of affinity in units of concentration, obtained from inhibition or displacement.

Like-named read-outs stand apart in the source and are kept apart here.

T1 sequence (Q02RJ6 198-498): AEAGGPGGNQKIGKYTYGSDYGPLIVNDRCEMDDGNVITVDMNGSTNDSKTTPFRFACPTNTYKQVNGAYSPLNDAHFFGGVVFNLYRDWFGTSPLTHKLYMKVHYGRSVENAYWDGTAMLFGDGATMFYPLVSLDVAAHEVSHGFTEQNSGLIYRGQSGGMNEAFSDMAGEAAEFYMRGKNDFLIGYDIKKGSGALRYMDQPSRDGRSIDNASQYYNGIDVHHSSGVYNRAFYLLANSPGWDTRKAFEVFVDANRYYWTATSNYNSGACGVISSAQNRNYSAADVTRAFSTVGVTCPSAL

Consider `CC(=O)SC1CC(=O)N(c2ccc(OC(F)(F)F)c(Cl)c2)C1=O` (centres unmarked) [Compound 30], for which the half-maximal inhibitory concentration (IC50) on LasB [1] is above 200 µM. Also, the inhibition at 1 µM in [2] is -11 ± 2%.
Take `CC(=O)c1ccc(N2C(=O)CC(CS)C2=O)cc1` (centres unmarked) [Compound 52]: the half-maximal inhibitory concentration (IC50) on LasB [1] was above 200 µM. Also, in data set [2], the inhibition at 1 µM was determined as 8 ± 3%.
On to `COc1ccc(N2C(=O)CC(S)C2=O)cc1` (centres unmarked) [Compound 20], for which the inhibition at 100 µM in data set [3] is 85 ± 3%; in data set [4] it was 89 ± 4%; in data set [5], 99 ± 1%; in data set [2] (read-out: ColH-PD % inhibition @ 100 μM), 95 ± 1%. Besides, the figures for the IC50 (against LasB [1]; in data set [2]) were 112 ± 8.9 µM and 0.32 ± 0.05 µM, respectively. The inhibition at 1 µM in data set [2] stood at 74%.
The compound `CC(=O)SC1CC(=O)N(c2ccc(Cl)c(Cl)c2)C1=O` (centres unmarked) [Compound 29] displayed a concentration for half-maximal inhibition (IC50) against LasB [1] above 200 µM. The inhibition at 1 µM in data set [2] was -1 ± 7%.
Regarding `COc1ccc(N2C(=O)CC(CSC(C)=O)C2=O)cc1` (centres unmarked) [Compound 43], the IC50 at LasB [1] is above 200 µM. The inhibition at 1 µM in data set [2] worked out at 4 ± 6%.
For the compound `O=C1CC(S)C(=O)N1c1ccc(OC(F)(F)F)c(Cl)c1` (centres unmarked) [Compound 23], the IC50 against LasB [1] worked out at 55.2 ± 4.4 µM. The inhibition at 1 µM in data set [2] was 18 ± 12%.
Taken in the same sequence, the figures for `O=C1CC(S)C(=O)N1c1c(Cl)cccc1Cl` (centres unmarked) [Compound 14] were 16 ± 3.7 µM and 8 ± 3%.
For the compound `CC(=O)SCC1CC(=O)N(c2ccc(C(C)=O)cc2)C1=O` (centres unmarked) [Compound 42], at LasB [1], the half-maximal inhibitory concentration (IC50) was above 200 µM. The inhibition at 1 µM in [2] is 2 ± 5%.
In turn, `O=C1CC(S)C(=O)N1c1ccc(F)c(F)c1` (centres unmarked) [Compound 15] registered a concentration for half-maximal inhibition (IC50) against LasB [1] of 3.5 ± 0.2 µM. For the same compound, the inhibition at 1 µM in data set [2] was found to be 2 ± 2%. Besides, the MIC in [6] and in data set [6] (Pseudomonas aeruginosa) was above 100 µM throughout.
In turn, `COc1cccc(N2C(=O)CC(S)C2=O)c1` (centres unmarked) [Compound 19] registered an IC50 against LasB [1] of 40.2 ± 1.4 µM. For the same compound, in data set [2], the inhibition at 1 µM was -3 ± 9%.
The like results for `CC(=O)SCC1CC(=O)N(c2ccccc2)C1=O` (centres unmarked) [Compound 40] were, in that order, above 200 µM and -15 ± 5%.
As for `Cc1ccc(N2C(=O)CC(S)C2=O)cc1` (centres unmarked) [Compound 8], the 50% inhibitory concentration (IC50) against LasB [1] came to 50.6 ± 1.6 µM. The inhibition at 1 µM in data set [2] was 34%.
Take `O=C1CC(CS)C(=O)N1c1ccc(F)c(F)c1` (centres unmarked) [Compound 51]: on LasB [1], the IC50 came to 10.1 ± 1.4 µM. Further, the inhibition at 1 µM in data set [2] was 2 ± 1%. For the same compound, the MIC in [6] and in [6] (Pseudomonas aeruginosa) was above 100 µM throughout.
`O=C1CC(S)C(=O)N1c1cccc(Cl)c1` (centres unmarked) [Compound 11] yielded a half-maximal inhibitory concentration (IC50) against LasB [1] of 8.1 ± 0.5 µM. Besides, the inhibition at 1 µM in data set [2] was 0%.
Compound `O=C1CC(S)C(=O)N1c1cccc([N+](=O)[O-])c1` (centres unmarked) [Compound 24] yielded a 50% inhibitory concentration (IC50) at LasB [1] of 22.2 ± 0.4 µM. Further, the inhibition at 1 µM in data set [2] was 4 ± 4%.
`COc1ccc(N2C(=O)CC(S)C2=O)cc1OC` (centres unmarked) [Compound 22]: the “loss in LasB activity compared to 13” value at LasB [7] (ratio of IC50 values) stood at 47 fold. On LasB [1], this compound yielded a concentration for half-maximal inhibition (IC50) of 160 ± 10.1 µM. In data set [2], the inhibition at 1 µM is 3 ± 11%.
The compound `Cc1ccc(Cl)cc1N1C(=O)CC(S)C1=O` (centres unmarked) [Compound 16] returned an IC50 on LasB [1] of 15 ± 0.6 µM. For the same compound, the inhibition at 1 µM in data set [2] was found to be 6 ± 1%.
`O=C1CC(S)C(=O)N1c1ccccc1` (centres unmarked) [Compound 7] had a half-inhibitory concentration (IC50) against LasB [1] of 44.2 ± 2.3 µM. Further, in data set [2], the inhibition at 1 µM worked out at 8 ± 2%.
In the case of `O=C1CC(S)C(=O)N1c1cccc(-c2ccccc2)c1` (centres unmarked) [Compound 26], at LasB [7], the “fold more active on LasB than compound 7” value is listed as 1.6 fold. At LasB [1], this compound returned an IC50 of 27.6 ± 4 µM. Also, the inhibition at 1 µM in data set [2] worked out at 7 ± 4%.
For the compound `COc1ccc(N2C(=O)CC(S)C2=O)c(OC)c1` (centres unmarked) [Compound 21], at LasB [1], half-maximal inhibition (IC50) was put at 45 ± 0.8 µM. The inhibition at 1 µM in [2] came out at 2 ± 13%.
`Cc1ccc(Cl)c(C)c1N1C(=O)CC(S)C1=O` (centres unmarked) [Compound 17] showed an IC50 on LasB [1] of 30.5 ± 5.4 µM. Moreover, the inhibition at 1 µM in data set [2] was determined as 6 ± 5%.
In turn, `CC(=O)SCC1CC(=O)N(c2ccc(Cl)c(Cl)c2)C1=O` (centres unmarked) [Compound 41] came in with a half-maximal inhibitory concentration (IC50) against LasB [1] above 200 µM. For the same compound, the inhibition at 1 µM in data set [2] is -1 ± 2%.
Turning to `O=C1CC(S)C(=O)N1c1ccccc1Cl` (centres unmarked) [Compound 10], at LasB [1], half-maximal inhibition (IC50) was put at 8.5 ± 0.4 µM. Further, the inhibition at 1 µM in [2] was determined as 8 ± 1%.
`O=C1CC(S)C(=O)N1c1ccc(-c2ccccc2)cc1` (centres unmarked) [Compound 27] came in with an IC50 against LasB [1] of 44.6 ± 1.1 µM. Also, the inhibition at 1 µM in data set [2] was found to be 5 ± 2%.
Turning to `COc1ccccc1N1C(=O)CC(S)C1=O` (centres unmarked) [Compound 18], on LasB [1], the IC50 came out at 28.9 ± 1.6 µM. For the same compound, in data set [2], the inhibition at 1 µM worked out at 0%.
`O=C1CC(S)C(=O)N1c1ccc(Cl)cc1` (centres unmarked) [Compound 12] returned a 50% inhibitory concentration (IC50) against LasB [1] of 16.5 ± 0.8 µM. The inhibition at 1 µM in [2] worked out at 33%.
For the compound `CC(C(=O)NO)N(Cc1ccccc1[N+](=O)[O-])S(=O)(=O)c1c(F)c(F)c(F)c(F)c1F` (centres unmarked) [Compound 3], the inhibition constant (Ki) on ColH is 0.005 µM.
Turning to `CC(NC(=O)C(Cc1ccccc1)NC(=O)NS(=O)(=O)c1ccc(F)cc1)C(=O)Nc1nnc(S)s1` (centres unmarked) [Compound 4], on ColH, the inhibition constant Ki is 0.2 µM.
As to `Cc1ccc(N2C(=O)CC(S)C2=O)cc1C` (centres unmarked) [Compound 9], the “difference in LasB activity between 9 and 22” value at LasB [7] (ratio of IC50 values, 9 more active) came to 5 fold. The compound further returned an IC50 at LasB [1] of 29.4 ± 0.9 µM. Further, in data set [2], the inhibition at 1 µM was 7 ± 2%.
Regarding `CC(=O)c1ccc(NC(=O)CS)cc1` [Compound 6, reference compound], the IC50 was above 100 µM in “in vitro [8]”, above 100 µM in the data set “in vitro [9]” and 100 µM in “in vitro [10]”.
As to `O=C1CC(CS)C(=O)N1c1ccc(Cl)c(Cl)c1` (centres unmarked) [Compound 50], half-maximal inhibition against LasB [1] (IC50) was put at 5.4 ± 0.7 µM. Besides, the inhibition at 1 µM in data set [2] turned out to be 2 ± 3%. Further, the MIC in data set [6] and in data set [6] (Pseudomonas aeruginosa) was above 100 µM each time.
Take `COc1ccc(N2C(=O)CC(SC(C)=O)C2=O)cc1` (centres unmarked) [Compound 28]: the IC50 against LasB [1] is above 200 µM. The inhibition at 1 µM in [2] was found to be 24 ± 2%.
